Patent US6989364B1, “Methods for treating cardiac hypertrophy by administering IFN-γ” (Genentech, Inc., priority 1998, dated 2006)
Marks after values point to notes of the source that are not given here.

Experiments:
Type in all cases: in vivo, rat
[1] = test system: male Sprague/Dawley (SD) rats; experiment: Hemodynamic assessment (MAP) in rats treated with fluprostenol and/or IFN-γ; details: conscious rats, 14 days of treatment (FIG. 5)
Method: Hemodynamic assessment Thirteen days after treatment, rats were anesthetized with intraperitoreal injection of ketamine 80 mg/kg (Aveco Co., Inc., Fort Dodge, Iowa) and xylazine 10 mg/kg (Rugby Laboratories, Inc., Rockville Center, N.Y.). A catheter (PE-10 fused with PE 50) filled with heparin-saline solution (50 U/ml) was implanted into the abdominal aorta, via the right femoral artery, for measurement of mean arterial pressure (MAP) and heart rate (HR). The catheter was exteriorized and fixed at the back of the neck.
One day after catheterization, the arterial catheter was connected to a Model CP 10 pressure transducer (Century Technology Company, Inglewood, Calif., USA) that was coupled to a Grass Model 7 polygraph (Grass Instruments, Quincy, Mass., USA). MAP and HR were measured simultaneously in conscious, unrestrained rats.

[2] = test system: rats with pressure overload; experiment: Arterial pressure and heart rate in rats with pressure overload
Source text: FIGS. 9A–9C Effects of IFN-γ on systolic arterial pressure, mean arterial pressure, and diastolic arterial pressure in rats with pressure overload. The number in parenthesis is the number of animals in each group. **P<0.01, compared to the sham group. Sham: sham-operated rats; Banded: aortic-banded rats; IFN: IFN-γ, SAP: systolic arterial pressure; MAP: mean arterial pressure; DAP: diastolic arterial pressure.
(§1) Experimental protocol in rats with pressure overload The rats with aortic banding randomly received subcutaneous injection of IFN-γ at 0.08 mg/k twice a day for one day before surgery and for 14 days after surgery. Sham animals were not treated. Thirteen days after treatment, a catheter was implanted into the right carotid artery under anesthesia as indicated above. One day after implantation, arterial pressure and HR were measured in conscious rats. The heart and other organs including the liver, kidney, and spleen were removed, weighed, and fixed in 10% buffered formalin for pathological studies. The left ventricle was quickly dissected and frozen with liquid nitrogen in some animals and stored at −80° C. for assessment of gene expression.

[3] = test system: left ventricle of rats with pressure overload; experiment: Cardiac gene expression (real-time RT-PCR) in rats with pressure overload
Method: as §1
RNA preparation Total RNA was isolated using RNeasy Maxi Columns (Qïägen) according to the manufacturer's instructions.
RT-PCR Real-time RT-PCR (TaqMan) technology was used to compare the gene expression between the various treatment groups. An oligonucleotide probe containing a fluorescent reporter dye, […], at the 3′-end was designed to hybridize to the amplicon defined by two PCR primers. A 3′-blocking phosphate prevents extension of the probe. The reporter dye is released from the probe by the 5′ exonuclease activity of Taq polymerase during the extension phase of PCR reaction. […] The threshold cycle number (Ct), defined as the point where the reporter fluorescence reaches a value greater than 10 times the standard deviation of the baseline, is […] to the amount of amplicon produced from the sample. Since the fluorescence is detected during the exponential phase of the amplification, none of the reaction components are limiting. In each experiment, a control is analyzed that lacks the RNA template to monitor for contamination, and another control is included where the RT step is omitted to eliminate amplification of possible contaminating DNA as the source of the signal. Reactions are optimized to give the greatest fluorescence signal and smallest Ct by titration of magnesium and primer concentrations, and the product is run on an agarose gel to verify the presence of a single band at the predicted molecular weight. In addition, the sequence of the amplicon is screened against Genbank to eliminate the possibility of overlap with closely related genes.
For each sample the mRNA for each target gene is determined using a standard curve as described below and then normalized to the amount of glyceraldehyde-3-phosphate-dehydrogenase (GAPDH) in the sample (see below for specifics of this calculation). The relative abundance of each target gene to GAPDH can then be compared among treatment groups.
RT-PCR was performed on 1 ng of total RNA per reaction using the TaqMan Model 7700 Sequence Detector (ABI-Perkin Elmer) (Gibson et al., Genome Res. 6, 995–1001 [1996]). Amplification reaction conditions (for 50 μl) were 1×TaqMan Buffer A, 200 μM dATP, dCTP, dGTP, and 400 μM dUTP, 10% glycerol, 6.5 mM MgCl2, 50 U MuLV reverse transcriptase, 20 U RNase Inhibitor, 1.25 U AmpliTaq Gold, 100 nM forward and reverse primers, and 100 nM fluorogenic probe. RT-PCR reagents and glycerol were purchased from Perkin Elmer and Sigma, respectively. Reactions were performed in MicoAmp Optical Tubes and Caps (ABI-Perkin Elmer). TaqMan primers and probes were designed according to guidelines determined by Perkin Elmer and synthesized at Genentech, Inc., except for those for rodent GAPDH which were a generous gift from Perkin Elmer. Reverse transcription was performed at 48° C. for 30 minutes followed by heat activation of AmpliTaq Gold at 95° C. for 10 minutes. Thermal cycling was at 95° C. for 30 seconds and 60° for 1.5 minutes for 40 cycles.
Quantitation of the TaqMan results was performed as described by Heid et al., Genome Res. 6:986–994 (1996), with modifications. Briefly, standard curves (1:5 serial dilution) for each target gene of interest were run in duplicate. […]

[4] = pressure overload, ratio to glyceraldehyde-3-phosphate dehydrogenase, mean ± SEM, n = 6

## IFN-γ: recombinant mouse IFN-γ (Genentech, Inc., South San Francisco, Calif., or Genzyme, Cambridge, Mass.)
[1]
  Effect of IFN-γ on MAP of animals treated with fluprostenol: did not affect the MAP
  Mean arterial pressure (MAP) compared to vehicle: had no effect on MAP
[2]; FIG. 9
  Incremental increase in arterial pressure (MAP, systolic, diastolic) in banded rats, IFN-γ vs vehicle: not different
[2]; pressure overload, conscious rats, IFN-γ 0.08 mg/kg s.c. twice a day, mean ± SEM
  HR, heart rate: 418 ± 19* bpm
[3]; banded rats, Table 3
  Effects of aortic constriction on α-smooth muscle actin and collagen I gene expression: inhibited
[3]; [4]
  ANF, atrial natriuretic factor expression: 3.61 ± 1.32
  COLI, collagen I expression: 0.77 ± 0.10
  COLIII, collagen III expression: 0.72 ± 0.09
  FIB, fibronectin expression: 0.97 ± 012
  SKA, α-skeletal actin expression: 2.47 ± 0.51
  SMA, α-smooth muscle actin expression: 0.77 ± 0.06
  βMHC, β-myosin heavy chain expression: 1.71 ± 0.14
